Source: patent US20100249223A1, “NEW USE FOR CANNABINOID-CONTAINING PLANT EXTRACTS” (priority 2007, published 2010)
Read-outs that look alike come from different tables or passages of the source.

Assays:
TRPV1 channel = target: T1, TRPV1 channel (Rattus norvegicus, UniProt O35433); experiment: Intracellular Ca2+ elevation in HEK-293 cells over-expressing rat TRPV1; assay type: cell-based; details: for Emax: HEK293, read-out: Maximal response (% ionomycin)
T1 construct: expressed in transfected cells
Description: (§1) The applicants have conducted experiments using cannabinoid-containing plant extracts on rat recombinant TRPV1, TRPM8 channels and TRPA1 (also known as ANKTM1) channels, both were stably expressed in HEK293 cells. […] The TRPM8 channel is the receptor from menthol and icilin. The intracellular Ca^2+ concentration was determined before and after the addition of various concentrations of test compounds.
(§2) For the experiments with the TRPM8 channels menthol and icilin were used to activate the channels. For the experiments with the TRPV1 channels ionomycin was used to activate the channels. The cannabinoid-containing plant extracts were produced from cannabis plants using the subcritical CO2 extraction technique as described in the applicants granted United Kingdom patent GB2391865. The cannabinoids were then purified further using the method disclosed in the applicants granted United Kingdom patent GB2393721 to produce substantially pure cannabinoids. Un-purified plant extracts of THC and CBD were also tested in the experiments with the TRPA1 channels.
(§3) HEK293 (human embryonic kidney) cells were plated on 100 mm diameter Petri dishes and transfected at about 80% confluence with Lipofectamine 2000 (Invitrogen) using a plasmid containing the rat TRPA1, TRPV1 or TRPM8 cDNA, according to the manufacturer's protocol. A stably transfected clone was selected by Geneticin G-418 (Invitrogen) 600 μg/ml. Stable transfection was checked by quantitative real time-PCR (RT-PCR).
(§4) TRPA/TRPV1/TRPM8-HEK-293 cells were plated on 100 mm diameter Petri dishes and after 3 days loaded for 1 hour at room temperature with the cytoplasmic calcium indicator Fluo-4-AM (4 μM, Molecular Probes) dissolved in Tyrode' buffer (NaCl 145 mM; KCl 2.5 mM; CaCl2 1.5 mM; MgCl2 1.2 mM; D-Glucose 10 mM; HEPES 10 mM pH 7.4) containing Pluronic (0.02%, Molecular Probes). The cells were washed twice in Tyrode buffer, resuspended and transferred to the quartz cuvette of the spectrofluorimeter (Perkin-Elmer LS 50B) (λ excitation=488 nm; λ emission=516 nm). Intracellular Ca^2+ concentration was determined before and after the addition of various concentrations of test compounds. EC50 values were determined as the concentration of test substances required to produce half-maximal increases in intracellular Ca^2+ concentration. Curve fitting and parameter estimation was performed with Graph Pad Prism®. The same compounds were tested also on non-transfected HEK 293 cells.

TRPA1 channel = target: T2, TRPA1 channel (Rattus norvegicus, UniProt Q6RI86); experiment: Intracellular Ca2+ elevation in HEK-293 cells over-expressing rat TRPA1; assay type: cell-based
T2 construct: expressed in transfected cells
Description: as §1, §2, §3, §4

[1] = HEK293, TRPA1-HEK-293 cells, relative to mustard oil 100 μM, read-out: Maximal response (% of mustard oil 100 μM)
[2] = TRPA1-HEK-293 cells, Fluo-4, read-out: -logEC50% (M) for the elevation of [Ca2+]i (converted)
[3] = TRPA1, summary of Table 1, read-out: EC50 values (range given)

T1 sequence (O35433 whole entry): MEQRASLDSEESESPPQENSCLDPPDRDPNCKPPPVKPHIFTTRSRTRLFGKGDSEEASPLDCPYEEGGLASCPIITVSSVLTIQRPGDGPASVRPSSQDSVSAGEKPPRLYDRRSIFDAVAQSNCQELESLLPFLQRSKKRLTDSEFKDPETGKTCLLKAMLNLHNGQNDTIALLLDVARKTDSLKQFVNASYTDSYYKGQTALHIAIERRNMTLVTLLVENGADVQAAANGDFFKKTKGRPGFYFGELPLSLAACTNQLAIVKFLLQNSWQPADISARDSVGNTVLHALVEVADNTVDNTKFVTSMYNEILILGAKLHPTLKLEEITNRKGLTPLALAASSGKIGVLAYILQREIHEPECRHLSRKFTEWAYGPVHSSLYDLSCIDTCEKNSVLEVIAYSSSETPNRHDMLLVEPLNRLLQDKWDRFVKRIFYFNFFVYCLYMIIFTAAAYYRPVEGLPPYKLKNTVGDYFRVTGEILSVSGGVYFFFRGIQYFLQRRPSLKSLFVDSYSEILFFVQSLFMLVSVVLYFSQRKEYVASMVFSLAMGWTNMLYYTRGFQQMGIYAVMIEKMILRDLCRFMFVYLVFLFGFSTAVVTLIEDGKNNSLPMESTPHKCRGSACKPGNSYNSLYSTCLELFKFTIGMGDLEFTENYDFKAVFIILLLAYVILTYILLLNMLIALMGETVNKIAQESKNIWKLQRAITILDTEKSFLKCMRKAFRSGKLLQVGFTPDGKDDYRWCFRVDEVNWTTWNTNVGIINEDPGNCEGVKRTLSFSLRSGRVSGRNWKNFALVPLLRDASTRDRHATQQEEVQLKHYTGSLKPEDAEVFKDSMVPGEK
T2 sequence (Q6RI86 whole entry): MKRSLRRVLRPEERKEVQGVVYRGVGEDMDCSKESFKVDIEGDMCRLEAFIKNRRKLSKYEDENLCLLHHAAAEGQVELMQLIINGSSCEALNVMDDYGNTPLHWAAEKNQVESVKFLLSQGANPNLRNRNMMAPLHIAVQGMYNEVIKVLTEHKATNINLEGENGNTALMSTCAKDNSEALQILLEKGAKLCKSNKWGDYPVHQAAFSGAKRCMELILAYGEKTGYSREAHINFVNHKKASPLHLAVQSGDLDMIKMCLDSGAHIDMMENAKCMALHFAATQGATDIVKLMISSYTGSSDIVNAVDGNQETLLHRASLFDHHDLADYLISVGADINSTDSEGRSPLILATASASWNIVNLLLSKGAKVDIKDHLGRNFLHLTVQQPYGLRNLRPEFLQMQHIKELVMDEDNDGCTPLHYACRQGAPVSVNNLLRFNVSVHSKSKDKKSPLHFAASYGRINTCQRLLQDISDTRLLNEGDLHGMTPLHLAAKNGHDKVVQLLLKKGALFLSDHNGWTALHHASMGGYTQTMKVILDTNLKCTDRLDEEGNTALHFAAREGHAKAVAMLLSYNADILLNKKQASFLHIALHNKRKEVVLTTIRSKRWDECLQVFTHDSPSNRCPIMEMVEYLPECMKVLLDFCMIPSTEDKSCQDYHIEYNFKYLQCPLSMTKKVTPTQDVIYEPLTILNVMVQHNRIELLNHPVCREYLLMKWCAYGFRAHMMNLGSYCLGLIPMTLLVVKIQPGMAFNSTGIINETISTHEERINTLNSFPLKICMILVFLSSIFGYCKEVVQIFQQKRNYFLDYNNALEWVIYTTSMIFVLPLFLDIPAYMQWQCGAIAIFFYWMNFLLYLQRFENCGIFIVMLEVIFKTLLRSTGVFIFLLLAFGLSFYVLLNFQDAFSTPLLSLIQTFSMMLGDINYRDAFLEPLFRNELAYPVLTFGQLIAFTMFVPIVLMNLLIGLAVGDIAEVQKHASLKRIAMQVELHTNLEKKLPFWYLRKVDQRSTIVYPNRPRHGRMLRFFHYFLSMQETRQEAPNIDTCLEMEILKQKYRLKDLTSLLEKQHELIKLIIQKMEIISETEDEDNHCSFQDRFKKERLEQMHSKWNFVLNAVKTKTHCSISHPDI

| SMILES | EC50 (TRPV1 channel) [nM] | Emax (TRPV1 channel) [%] | Emax (TRPA1 channel; [1]) [%] | EC50 (TRPA1 channel; [2]) [M] | further results |
| --- | --- | --- | --- | --- | --- |
| CCCCCc1cc(O)c2c(c1)OC(C)(CCC=C(C)C)C=C2 (centres unmarked) [CBC, cannabichromene] | 24200 | 9 ± 4.9 | 118 ± 10 | 3.31e-08 | EC50 (TRPA1 channel; [3]): 6e-08 to 1e-07 M |
| C=C(C)[C@@H]1CCC(C)=C[C@H]1c1c(O)cc(CCCCC)cc1O [CBD, cannabidiol] | 700 | 50 ± 1 | 86.9 ± 8 | 8.51e-08 | EC50 (TRPA1 channel; [3]): 6e-08 to 1e-07 M |
| C=C(C)[C@@H]1CCC(C)=C[C@H]1c1c(O)cc(CCCCC)c(C(=O)O)c1O [CBDA, cannabidiolic acid] |  |  | 48.2 ± 6 | 8.13e-07 |  |
| C=C(C)[C@@H]1CCC(C)=C[C@H]1c1c(O)cc(CCC)cc1O [CBDV, cannabidivarin] | 1400 | 19.8 ± 1.9 |  |  |  |
| CCCCCc1cc(O)c(C/C=C(\C)CCC=C(C)C)c(O)c1 [CBG, cannabigerol] | 1000 | 54.4 ± 5.4 |  |  |  |
| COc1cc(CNC(=O)CCCC/C=C/C(C)C)ccc1O [Capsaicin, reference compound] |  | 68.6 ± 1.2 |  |  |  |
| O=CC=Cc1ccccc1 [Cinnamaldehyde, cinnamaldehyde, reference compound] |  |  | 99.1 ± 9 | 1.29e-05 |  |
| C=CCN=C=S [Mustard oil (allyl isothiocyanate), allyl isothiocyanate, reference compound] |  |  |  |  | Emax at 100 µM (TRPA1 channel; [1]): 100 ± 11% |
| CCCCCc1cc(O)c2c(c1)OC(C)(C)[C@@H]1CCC(C)=C[C@@H]21 [THC, tetrahydrocannabinol] |  |  | 117 ± 12 | 1.86e-07 |  |
| CCCCCc1cc2c(c(O)c1C(=O)O)[C@@H]1C=C(C)CC[C@H]1C(C)(C)O2 [THCA, tetrahydrocannabinolic acid] |  |  |  |  | Maximal response (% of mustard oil 100 μM) (TRPA1 channel; TRPA1-HEK-293 cells, relative to mustard oil 100 μM): 70.1 ± 8% |
